Where a SMILES comes first, the peptide text is derived from it. [ ]: non-standard residue; d: D form. pGlu = O=C1CC[C@@H](C(=O)O)N1; Nva = CCC[C@H](N)C(=O)O
Test system: Haloperidol-induced catalepsy
Experiment: Inhibition of Haloperidol-induced catalepsy on rats
Assay type: in vivo, male Wistar rats
Settings: 40 mg/kg Haloperidol s.c., compound i.v. 120 min later, probit analysis, observation time per compound
Experimental: (1) Inhibition of Haloperidol-induced catalepsy on rats (see J. Delay and P. Deniker: Compt. Rend. Congr. Med. Alenistes Neurologistes, 19, 497, Luxembourg, 1952)
The tests were performed on male Wistar rats weighing 160 to 180 g.
40 mg/kg of 4-(p-chlorophenyl)-1-(3-/p-fluorobenzoyl/propyl)-piperidin-4-ol(Haloperidol) were administered subcutaneously into the animals, and 120 minutes after this treatment the animals were checked for the appearance of catalepsy. The rats were divided into groups of 10 animals each, and treated intravenously with TRH or the new TRH analogues. The animals belonging to the control group received physiological saline. The catalepsy-suspending effects of the individual compounds were determined 15, 30, 60, 90 and 120 minutes after the treatment. The animals that had not changed their position for 30 seconds after placing their fore-paw onto a 7 cm high column were regarded as cataleptic.

Row | Structure (SMILES) | Inhibition of Haloperidol catalepsy ED50 [mg/kg]
1 | CCC[C@H](NC(=O)[C@@H]1CCC(=O)N1)C(=O)N1CCC[C@H]1C(N)=O [Nva Pro H, L-Pyroglutamyl-L-norvalyl-L-prolinamide] ([pGlu]-[Nva]-Pro-NH2) | 11.4
2 | CCNC(=O)[C@@H]1CCCN1C(=O)[C@H](CC(C)C)NC(=O)[C@@H]1CCC(=O)N1 [Leu Pro Et, L-Pyroglutamyl-L-leucyl-L-proline ethylamide] ([pGlu]-Leu-Pro-NHEt) | 56.6
3 | NC(=O)[C@@H]1CCCCN1C(=O)[C@H](Cc1c[nH]cn1)NC(=O)[C@@H]1CCC(=O)N1 [His HPro H, L-Pyroglutamyl-L-histidyl-L-homoprolinamide] | 13.7

Test system: locomotive activity induced by L-Dopa
Experiment: Potentiation of locomotive activity induced on mice by L-Dopa
Assay type: in vivo, male mice
Settings: Pargyline 40 mg/kg i.p., compound 20 mg/kg i.p., L-Dopa 100 mg/kg i.p., 30 min, percent related to TRH
Experimental: (2) Potentiation of locomotive activity induced on mice by L-Dopa (see The Thyroid Axis, Drugs and Behavior, p. 116, A. J. Prage Jr., Raven Press, New York, 1974)
The tests were performed on groups of 15 male mice each, weighing 18 to 22 g.
First, the animals were treated intraperitoneally with 40 mg/kg of N-methyl-N-propargyl-benzylamine (Pargyline), and then an intraperitoneal dosage of 20 mg/kg of TRH or a TRH-analogue was introduced, followed by an intraperitoneal dosage of 100 mg/kg of L-Dopa. The locomotive activity of the animals was recorded 30, 60 and 90 minutes after this treatment, and the level of potentiation was expressed in percents related to the results observed with TRH.

Row | Structure (SMILES) | Potentiation of the locomotive effect of L-Dopa % after 30' [%]
4 | CCC[C@H](NC(=O)[C@@H]1CCC(=O)N1)C(=O)N1CCC[C@H]1C(N)=O [Nva Pro H, L-Pyroglutamyl-L-norvalyl-L-prolinamide] ([pGlu]-[Nva]-Pro-NH2) | 254
5 | CCNC(=O)[C@@H]1CCCN1C(=O)[C@H](CC(C)C)NC(=O)[C@@H]1CCC(=O)N1 [Leu Pro Et, L-Pyroglutamyl-L-leucyl-L-proline ethylamide] ([pGlu]-Leu-Pro-NHEt) | 102
6 | NC(=O)[C@@H]1CCCCN1C(=O)[C@H](Cc1c[nH]cn1)NC(=O)[C@@H]1CCC(=O)N1 [His HPro H, L-Pyroglutamyl-L-histidyl-L-homoprolinamide] | 209

Same assay, conditions: Pargyline 40 mg/kg i.p., compound 20 mg/kg i.p., L-Dopa 100 mg/kg i.p., 60 min, percent related to TRH

Row | Structure (SMILES) | Potentiation of the locomotive effect of L-Dopa % after 60' [%]
7 | CCC[C@H](NC(=O)[C@@H]1CCC(=O)N1)C(=O)N1CCC[C@H]1C(N)=O [Nva Pro H, L-Pyroglutamyl-L-norvalyl-L-prolinamide] ([pGlu]-[Nva]-Pro-NH2) | 156
8 | CCNC(=O)[C@@H]1CCCN1C(=O)[C@H](CC(C)C)NC(=O)[C@@H]1CCC(=O)N1 [Leu Pro Et, L-Pyroglutamyl-L-leucyl-L-proline ethylamide] ([pGlu]-Leu-Pro-NHEt) | 90
9 | NC(=O)[C@@H]1CCCCN1C(=O)[C@H](Cc1c[nH]cn1)NC(=O)[C@@H]1CCC(=O)N1 [His HPro H, L-Pyroglutamyl-L-histidyl-L-homoprolinamide] | 85

Same assay, conditions: Pargyline 40 mg/kg i.p., compound 20 mg/kg i.p., L-Dopa 100 mg/kg i.p., 90 min, percent related to TRH

Row | Structure (SMILES) | Potentiation of the locomotive effect of L-Dopa % after 90' [%]
10 | CCC[C@H](NC(=O)[C@@H]1CCC(=O)N1)C(=O)N1CCC[C@H]1C(N)=O [Nva Pro H, L-Pyroglutamyl-L-norvalyl-L-prolinamide] ([pGlu]-[Nva]-Pro-NH2) | 214
11 | CCNC(=O)[C@@H]1CCCN1C(=O)[C@H](CC(C)C)NC(=O)[C@@H]1CCC(=O)N1 [Leu Pro Et, L-Pyroglutamyl-L-leucyl-L-proline ethylamide] ([pGlu]-Leu-Pro-NHEt) | 201
12 | NC(=O)[C@@H]1CCCCN1C(=O)[C@H](Cc1c[nH]cn1)NC(=O)[C@@H]1CCC(=O)N1 [His HPro H, L-Pyroglutamyl-L-histidyl-L-homoprolinamide] | 110

Test system: Reserpine hypothermy
Experiment: Reserpine hypothermy-reversing effect on mice
Assay type: in vivo, male mice
Settings: 16 hours after reserpine 5 mg/kg i.p., before the tripeptide, average of 10 animals
Experimental: (3) Reserpine hypothermy-reversing effect on mice (see B. M. Askew: Life Sci. 2, 725-730 /1963/)
The tests were performed on groups of 10 male mice each, weighing 18 to 22 g. Reserpine was administered into the animals in an intraperitoneal dosage of 5 mg/kg, and 16 hours later the animals were treated with 20 mg/kg of TRH or a tripeptide under examination.
The rectal temperature of the animals was measured prior to the administration of reserpine (marked by "norm." in Table 1), 16 hours after the administration of reserpine (marked by "res." in Table 1), furthermore 1 and 2 hours after the administration of the tripeptide (marked by "obs. time" in Table 1). The data listed in Table 1 are the averages of the temperatures observed on the 10 animals.

Row | Structure (SMILES) | Reserpine hypothermy reversing effect, Rectal temperature res. [°C]
13 | CCC[C@H](NC(=O)[C@@H]1CCC(=O)N1)C(=O)N1CCC[C@H]1C(N)=O [Nva Pro H, L-Pyroglutamyl-L-norvalyl-L-prolinamide] ([pGlu]-[Nva]-Pro-NH2) | 25.9
14 | CCNC(=O)[C@@H]1CCCN1C(=O)[C@H](CC(C)C)NC(=O)[C@@H]1CCC(=O)N1 [Leu Pro Et, L-Pyroglutamyl-L-leucyl-L-proline ethylamide] ([pGlu]-Leu-Pro-NHEt) | 28.7
15 | NC(=O)[C@@H]1CCCCN1C(=O)[C@H](Cc1c[nH]cn1)NC(=O)[C@@H]1CCC(=O)N1 [His HPro H, L-Pyroglutamyl-L-histidyl-L-homoprolinamide] | 28.5

Same assay, conditions: prior to the administration of reserpine (baseline of the group), average of 10 animals

Row | Structure (SMILES) | Reserpine hypothermy reversing effect, Rectal temperature norm. [°C]
16 | CCC[C@H](NC(=O)[C@@H]1CCC(=O)N1)C(=O)N1CCC[C@H]1C(N)=O [Nva Pro H, L-Pyroglutamyl-L-norvalyl-L-prolinamide] ([pGlu]-[Nva]-Pro-NH2) | 36.2
17 | CCNC(=O)[C@@H]1CCCN1C(=O)[C@H](CC(C)C)NC(=O)[C@@H]1CCC(=O)N1 [Leu Pro Et, L-Pyroglutamyl-L-leucyl-L-proline ethylamide] ([pGlu]-Leu-Pro-NHEt) | 36.2
18 | NC(=O)[C@@H]1CCCCN1C(=O)[C@H](Cc1c[nH]cn1)NC(=O)[C@@H]1CCC(=O)N1 [His HPro H, L-Pyroglutamyl-L-histidyl-L-homoprolinamide] | 36.5

Same assay, conditions: reserpine 5 mg/kg i.p., 1 hour after 20 mg/kg of the tripeptide, average of 10 animals

Row | Structure (SMILES) | Reserpine hypothermy reversing effect, Rectal temperature obs. time 1 h [°C]
19 | CCC[C@H](NC(=O)[C@@H]1CCC(=O)N1)C(=O)N1CCC[C@H]1C(N)=O [Nva Pro H, L-Pyroglutamyl-L-norvalyl-L-prolinamide] ([pGlu]-[Nva]-Pro-NH2) | 36.4
20 | CCNC(=O)[C@@H]1CCCN1C(=O)[C@H](CC(C)C)NC(=O)[C@@H]1CCC(=O)N1 [Leu Pro Et, L-Pyroglutamyl-L-leucyl-L-proline ethylamide] ([pGlu]-Leu-Pro-NHEt) | 30.7
21 | NC(=O)[C@@H]1CCCCN1C(=O)[C@H](Cc1c[nH]cn1)NC(=O)[C@@H]1CCC(=O)N1 [His HPro H, L-Pyroglutamyl-L-histidyl-L-homoprolinamide] | 35.3

Same assay, conditions: reserpine 5 mg/kg i.p., 2 hours after 20 mg/kg of the tripeptide, average of 10 animals

Row | Structure (SMILES) | Reserpine hypothermy reversing effect, Rectal temperature obs. time 2 h [°C]
22 | CCC[C@H](NC(=O)[C@@H]1CCC(=O)N1)C(=O)N1CCC[C@H]1C(N)=O [Nva Pro H, L-Pyroglutamyl-L-norvalyl-L-prolinamide] ([pGlu]-[Nva]-Pro-NH2) | 32.0
23 | CCNC(=O)[C@@H]1CCCN1C(=O)[C@H](CC(C)C)NC(=O)[C@@H]1CCC(=O)N1 [Leu Pro Et, L-Pyroglutamyl-L-leucyl-L-proline ethylamide] ([pGlu]-Leu-Pro-NHEt) | 33.4
24 | NC(=O)[C@@H]1CCCCN1C(=O)[C@H](Cc1c[nH]cn1)NC(=O)[C@@H]1CCC(=O)N1 [His HPro H, L-Pyroglutamyl-L-histidyl-L-homoprolinamide] | 35.4

Test system: sleeping caused by hexobarbital
Experiment: Influencing the duration of sleeping caused by hexobarbital
Assay type: in vivo, male mice
Settings: mice, hexobarbital sodium 60 mg/kg i.v., 10 min later compound 20 mg/kg i.p.; control 38.4 ± 1.36 min.
Experimental: (4) Influencing the duration of sleeping caused by hexobarbital The tests were performed on groups of 10 male mice each. The animals were treated intravenously with 60 mg/kg of hexobarbital sodium ([…]; Bayer), and 10 minutes later 20 mg/kg of TRH or a tripeptide under examination were administered intraperitoneally into the animals. The sleeping times of the animals were recorded, averages were calculated for the individual groups, and the results were expressed as percents related to the control group.

Row | Structure (SMILES) | Decrease of sleeping period (% related to the control animals) Hexobarb. [%]
25 | CCC[C@H](NC(=O)[C@@H]1CCC(=O)N1)C(=O)N1CCC[C@H]1C(N)=O [Nva Pro H, L-Pyroglutamyl-L-norvalyl-L-prolinamide] ([pGlu]-[Nva]-Pro-NH2) | 114
26 | CCNC(=O)[C@@H]1CCCN1C(=O)[C@H](CC(C)C)NC(=O)[C@@H]1CCC(=O)N1 [Leu Pro Et, L-Pyroglutamyl-L-leucyl-L-proline ethylamide] ([pGlu]-Leu-Pro-NHEt) | 126
27 | NC(=O)[C@@H]1CCCCN1C(=O)[C@H](Cc1c[nH]cn1)NC(=O)[C@@H]1CCC(=O)N1 [His HPro H, L-Pyroglutamyl-L-histidyl-L-homoprolinamide] | 63

Test system: Ethanol narcosis
Experiment: Ethanol narcosis
Assay type: in vivo
Settings: mice, 4.5 g ethanol i.p., 10 min later compound 20 mg/kg i.p.; control 46.9 ± 2.17 min.
Experimental: (5) Ethanol narcosis (see J. M. Cott et al.: J. Pharm. Exp. Ther. 196, 594 /1976/) The tests were performed on groups of 20 mice of both sexes, each weighing 18 to 22 g. […] of ethanol were introduced intraperitoneally into the animals, and 10 minutes later the animals were treated intraperitoneally with 20 mg/kg of TRH or a tripeptide under examination. The sleeping periods of the animals were recorded, averages were calculated for the individual groups, and the results were expressed as percents related to the control group.

Row | Structure (SMILES) | Decrease of sleeping period (% related to the control animals) Ethanol [%]
28 | CCC[C@H](NC(=O)[C@@H]1CCC(=O)N1)C(=O)N1CCC[C@H]1C(N)=O [Nva Pro H, L-Pyroglutamyl-L-norvalyl-L-prolinamide] ([pGlu]-[Nva]-Pro-NH2) | 77
29 | CCNC(=O)[C@@H]1CCCN1C(=O)[C@H](CC(C)C)NC(=O)[C@@H]1CCC(=O)N1 [Leu Pro Et, L-Pyroglutamyl-L-leucyl-L-proline ethylamide] ([pGlu]-Leu-Pro-NHEt) | 65
30 | NC(=O)[C@@H]1CCCCN1C(=O)[C@H](Cc1c[nH]cn1)NC(=O)[C@@H]1CCC(=O)N1 [His HPro H, L-Pyroglutamyl-L-histidyl-L-homoprolinamide] | 114

Test system: TSH
Experiment: Hormonal activity (TSH effect) on rats
Assay type: in vivo, male Wistar rats
Settings: 20 mg/kg i.v., plasma TSH by radioimmune assay 15 min after treatment, relative activity, TRH = 100%
Experimental: (6) Hormonal activity (TSH effect) on rats
The tests were performed on groups of 7 or 8 male Wistar rats each, weighing 200 g. The animals were treated intravenously with 20 mg/kg of TRH or a tripeptide under examination. The TSH reaction of the animals was evaluated 15 minutes after this treatment, by subjecting the blood plasma to radioimmune assay. The relative activities were calculated by the four-point method using a TPA 101 computer, and the activity of TRH was regarded as 100%.

Row | Structure (SMILES) | TSH effect [%]
31 | CCC[C@H](NC(=O)[C@@H]1CCC(=O)N1)C(=O)N1CCC[C@H]1C(N)=O [Nva Pro H, L-Pyroglutamyl-L-norvalyl-L-prolinamide] ([pGlu]-[Nva]-Pro-NH2) | 0
32 | CCNC(=O)[C@@H]1CCCN1C(=O)[C@H](CC(C)C)NC(=O)[C@@H]1CCC(=O)N1 [Leu Pro Et, L-Pyroglutamyl-L-leucyl-L-proline ethylamide] ([pGlu]-Leu-Pro-NHEt) | 0
33 | NC(=O)[C@@H]1CCCCN1C(=O)[C@H](Cc1c[nH]cn1)NC(=O)[C@@H]1CCC(=O)N1 [His HPro H, L-Pyroglutamyl-L-histidyl-L-homoprolinamide] | 68.6

Reference: patent US4299821A, “Tripeptides acting on the central nervous system and a process for the preparation thereof” (Richter Gedeon Vegyeszeti Gyar Rt., priority 1979, dated 1981)
